The text below walks through data of US7700624B2, “3-aminocyclopentanecrboxamides as modulators of chemokine receptors” (Incyte Corporation, priority 2005, dated 2010).

This test addresses T1, CCR2 (Homo sapiens, UniProt P41597).
T1 construct: Peripheral Blood Mononuclear Cells (PBMCs) prepared from normal human whole blood via density gradient centrifugation; endogenous in cells; host or cells: human PBMCs from normal whole blood
T1 sequence (P41597 1-360 isoform P41597-2): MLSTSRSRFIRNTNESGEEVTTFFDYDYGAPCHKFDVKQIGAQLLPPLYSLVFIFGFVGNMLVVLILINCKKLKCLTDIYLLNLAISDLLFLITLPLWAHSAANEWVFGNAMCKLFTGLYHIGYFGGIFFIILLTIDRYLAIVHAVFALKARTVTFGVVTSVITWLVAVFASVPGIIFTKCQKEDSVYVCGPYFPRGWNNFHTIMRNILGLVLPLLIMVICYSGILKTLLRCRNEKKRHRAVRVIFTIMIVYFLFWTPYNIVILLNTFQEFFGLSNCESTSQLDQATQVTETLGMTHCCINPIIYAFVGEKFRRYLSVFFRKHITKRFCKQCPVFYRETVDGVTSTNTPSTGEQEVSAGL
In words: CCR2 binding assay: 125I-labeled MCP-1 binding to human PBMCs. The following applies: inhibition of specific binding of 0.1 to 0.2 nM 125I-labeled MCP-1 to human PBMCs, 30 min at room temperature. From the text: The CCR2 antagonist activity of compounds of the invention can be reported as the inhibitor concentration required for 50% inhibition (IC50 values) of specific binding in receptor binding assays using ^125I-labeled MCP-1, as ligand, and Peripheral Blood Mononuclear Cells (PBMCs) prepared from normal human whole blood via density gradient centrifugation. Specific binding is preferably defined as the total binding (e.g., total cpm on filters) minus the non-specific binding. Non-specific binding is defined as the amount of cpm still detected in the presence of excess unlabeled competitor (e.g., MCP-1).
Human PBMCs are used to test compounds of the invention in a binding assay. For example, 200,000 to 500,000 cells are incubated with 0.1 to 0.2 nM ^125I-labeled MCP-1, with or without unlabeled competitor (10 nM MCP-1) or various concentrations of compounds to be tested. ^125I-labeled MCP-1, are prepared by suitable methods or purchased from commercial vendors (Perkin Elmer, Boston Mass.). The binding reactions are performed in 50 to 250 μL of a binding buffer consisting of […] pH 7.2, and 0.1% BSA (bovine serum albumin), for 30 min at room temperature. The binding reactions are terminated by harvesting the membranes by rapid filtration through glass fiber filters (Perkin Elmer) which is presoaked in 0.3% polyethyleneimine or Phosphate Buffered Saline (PBS). The filters were rinsed with approximately 600 μL of binding buffer containing 0.5 M NaCl or PBS, then dried, and the amount of bound radioactivity is determined by counting on a Gamma Counter (Perkin Elmer).
Regarding `CC(C)[C@]1(C(=O)N2CCN(c3cc(C(F)(F)F)ccn3)CC2)CC[C@@H](NC2CCS(=O)(=O)CC2)C1` [Example 15, N-[(1R-3S)-3-isopropyl-3-({4-[4-(trifluoromethyl)pyridin-2-yl]piperazin-1-yl}carbonyl)cyclopentyl]tetrahydro-2H-thiopyran-4-amine 11-dioxide], the IC50 turned out to be 541 nM.

`CC(C)[C@]1(C(=O)N2CCN(c3cc(C(F)(F)F)ccn3)CC2)CC[C@@H](NCc2ccc3[nH]ccc3c2)C1` [Example 26, (1R,3S)-N-(1H-indol-5-ylmethyl)-3-isopropyl-3-({4-[4-(trifluoromethyl)pyridin-2-yl]piperazin-1-yl}carbonyl)cyclopentanamine] returned an IC50 of 273 nM.

`CC(C)[C@]1(C(=O)N2CCN(c3cc(C(F)(F)F)ccn3)CC2)CC[C@@H](NCc2ccc(Cl)s2)C1` [Example 5, (1R,3S)-N-[(5-chloro-2-thienyl)methyl]-3-isopropyl-3-({4-[4-(trifluoromethyl)pyridin-2-yl]piperazin-1-yl}carbonyl)cyclopentanamine] came in with an IC50 of 616 nM.

Compound `CC(C)[C@]1(C(=O)N2CCN(c3cc(C(F)(F)F)ccn3)CC2)CC[C@@H](NC2CCOC2)C1` (mixture of isomers) [Example 23, N-[(1R-3S)-3-isopropyl-3-({4-[4-(trifluoromethyl)pyridin-2-yl]piperazin-1-yl}carbonyl)cyclopentyl]tetrahydrofuran-3-amine] had an IC50 of 157 nM.
